Experiments:
[1] = calculated neutralization equilibrium constant Kn for deprotonation of sulfonamide with ammonia; format: physicochemical; conditions: for Kn: RfSO2NHX + NH3 -> RfSO2N(-)X + NH4+, pKa of ammonium 9.24 at 25 °C; for K(RfSO2NHX): acid dissociation constant of the sulfonamide, from pKa
Procedure: The equilibrium between a sulfonamide and its conjugate sulfamidate anion is determined by the both the pKa of the sulfonamide and the pKb (i.e., the pKa of the conjugate acid of the base).
NH3+RfSO2NHX→NH4^++RfSO2N^(−)X
The neutralization equilibrium constant Kn can be expressed as
Kn can also be expressed as: […]

[2] = determined experimentally

| Structure (SMILES) | Kn [1] | K(RfSO2NHX) [1] | pKa [2] |
| --- | --- | --- | --- |
| O=S(=O)(NCCO)C(F)(F)C(F)(F)C(F)(F)C(F)(F)F [X = CH2CH2OH, CF3CF2CF2CF2SO2NHCH2CH2OH] | 467 | 2.69 × 10^−7 | – |
| CCNS(=O)(=O)C(F)(F)C(F)(F)C(F)(F)C(F)(F)F [X = CH2CH3] | – | – | 8.15 |
| CNS(=O)(=O)C(F)(F)C(F)(F)C(F)(F)C(F)(F)F [X = CH3, CF3CF2CF2CF2SO2NHCH3] | 52 | 3.01 × 10^−8 | – |
| NS(=O)(=O)C(F)(F)C(F)(F)C(F)(F)C(F)(F)F [X = H, CF3CF2CF2CF2SO2NH2] | 1800 | 1.05 × 10^−6 | – |
